Reference: US9023998B2, “Near infrared fluorogen and fluorescent activating proteins for in vivo imaging and live-cell biosensing” (Carnegie Mellon University, priority 2013, dated 2015)

Legend:
[1] = tested on: HEK293 cells expressing dL9.5; assay: Confocal imaging of HEK293 cells expressing dL9.5 in various cellular contexts; format: cell-based; conditions: HEK293; SKC728 100 nM, SKC602 50 nM
Description: The expressed construct was imaged using an Andor Revolution XD spinning disk confocal (GFP 488:525/50, dL9.5 (SEQ. ID. NO. 3) 640:685/70 AND 640:794/160, 60×1.49 NA oil immersion objective) and the results are shown in FIG. 5. […] The fluorogen was not washed away prior to imaging.
Imaging conditions were similar to those described for obtaining FIG. 5.
CYTOPLASM. HEK293 cells were transfected with, and stably expressing the pCYdL9.5eGFP vector, were thawed from a cryostock and maintained in DMEM/10% FBS for four passages prior to fluorescence imaging procedures. Immediately prior to imaging, growth media was exchanged for HBSS (pH 7.4) supplemented with SKC602 (200 nM final concentration). The cells were allowed to recover at 37° C. with 5% CO2 for 20-30 minutes, and fluoromodule activity under in vivo conditions within the cytoplasm was imaged using an Andor Revolution XD spinning disk confocal microscope (60×1.49 NA oil immersion objective, excitation at 640 nm, emission in far-red: 685/70 filter, and NIR: 794/160 filter). The same cells were also imaged for eGFP activity (excitation at 488 nm, emission via 525/50 nm filter). […] In accordance with the fluoromodule emission spectrum shown in FIG. 2, this emission filter allows the microscope camera to detect a large portion of the fluoromodule emission, and consequently, the observed signal appears brighter. One must note that intensities cannot be directly compared between channels, due to considerations non-exclusively including: differences in excitation light intensities, exposure and capture times, the transmission profile of each emission filter, and the quantum efficiency of the iXON3 DU897 (back-illuminated) camera across the range of emitted wavelengths. An evenly distributed fluorescence signal is observed in these cells, with no bright foci that would indicate protein aggregation, and the fluoromodule signal intensity scales with that of eGFP.
PLASMA MEMBRANE. […]

[2] = tested on: S. cerevisiae expressing mL9.3 or mL9.5 surface-tethered; assay: Confocal imaging of yeast with surface-tethered FAPs; format: cell-based; conditions: 100 nM fluorogen, excitation 641 nm, emission 794/160
Description: Plasmids pPNL6-mL9.3 and pPNL6-mL9.5 for yeast cell surface display were produced by PCR amplification of mL9.3 (SEQ. ID. NO. 23) and mL9.5 (SEQ. ID. NO. 24) from pPNL6-dL9.2 and pPNL6-dL9.5, respectively, using primers pCTCON2F (CGACGATTGAAGGTAGATACCCATACGACGTTCCAGACTACGCTCTGCAG) (SEQ. ID. NO. 29) and p6 mL9XRv (TCTCGATGCGGCCGCTTAAGACAAAACAGTAACTTTAGTACCACC) (SEQ. ID. NO. 30). Amplicons were digested with NheI and NotI prior to ligation into a like-digested pPNL6 vector backbone. Ligated plasmids were transformed into E. coli (NEB 10β) by heat-shock, and plasmids from single colonies were sequenced to verify identity. Upon verification, purified stocks of each plasmid were introduced into S. cerevisiae strain JAR200 via electroporation. Transformed cells were induced in the manner described in Szent-Gyorgyi, et al. 2008 for 96 hours prior to imaging. Cells were adhered to concanavalin A-coated glass-bottom dishes (MatTek Corporation) for 10 minutes at room temperature. […] Images of fluorescence (FIG. 12, NIR:794/160) were obtained by excitation with a 641 nm laser, and emission was collected through a 794/160 bandpass filter (Semrock) by an iXon3 EMCCD (DU897 BV). […]

| SMILES | Membrane permeance shown by subcellular labeling (plasma membrane exterior / mitochondrial matrix) [1] | NIR fluorescence of fluorogen alone in non-expressing yeast [2] |
| --- | --- | --- |
| CN(C)c1ccc(/C=C/C(=C2C=CC(=[N+](C)C)C=C2)c2ccc(N(C)C)cc2)cc1 [SKC602, (E)-N-(4-(1,3-bis(4-(dimethylamino)phenyl)allylidene)cyclohexa-2,5-dien-1-ylidene)-N-methylmethanaminium] | membrane permeant | do not cause NIR fluorescence in the absence of cognate FAP |
| CN(C)c1ccc(C(/C=C/c2ccc(N(C)CCCCC(=O)NC(CCS(=O)(=O)O)C(=O)O)cc2)=C2C=CC(=[N+](C)C)C=C2)cc1 (stereo not shown) [SKC728] | membrane impermeant | do not cause NIR fluorescence in the absence of cognate FAP |
